In patent US8835397B2, “Macrocyclic lactone tablet formulation” (Bayer New Zealand Ltd., priority 2006, dated 2014):

Assay: Abamectin blood plasma levels after raw active (no excipients) in gelatine capsule, sheep (Example 2)
Format: in vivo
Conditions: oral gelatine capsule, raw active without excipients, 0.2 mg/kg
Protocol: Given the results in Example 1, a further trial was completed to determine the influence of the formulation on the degree of absorption of abamectin. This was completed by ascertaining baseline levels of abamectin drug bioavailability when animals are dosed with raw active (no excipients).
Five sheep weighing 59.0 kg to 63.5 kg (mean=61.2 kg) were all dosed with one abamectin treatment, which contained a dose sufficient for a 60 kg animal at the standard dose rate of 0.2 mg/kg for abamectin. The abamectin dose was contained within a gelatine capsule.
Prior to administration of the invention or Reference formulation, all animals were dosed to their individual liveweight with SCANDA™ (Batch 52888, expiry April 2006) at least 14 days prior to each treatment session, and tested free of strongylid nematodes (via faecal egg count) prior to the commencement of each treatment session.
Gelatine capsules containing an abamectin drug (one capsule per sheep) were used. All animals were dosed orally with the assistance of a “pill popper”, which was followed immediately by approx 60 ml of tap water. The capsules were dark green in colour, to prevent the light sensitive abamectin from being prematurely exposed to light.
All animals were blood sampled seven times. […]

Substance: abamectin
- Abamectin blood plasma peak level: just above the detection threshold
